Laboratory results as given in patent EP0415304A2, “Dipyrido[3,2-b:2',3'-e][1,4]oxazepin (and thiazepin)-6(5H)-ones and their use in the prevention or treatment of aids” (BOEHRINGER INGELHEIM PHARMACEUTICALS INC., priority 1989, dated 1991).

Target: T1, HIV-1 RT (Human immunodeficiency virus type 1 group M subtype B, UniProt P03367)
T1 construct: Reverse transcriptase enzyme from the LAV strain of Human Immunodeficiency Virus (HIV-1) (1) was isolated from the bacterial strain JM109; made in house; host or cells: E. coli JM109, clone pBRTprtl+ in vector pIB121 under the lac promoter
Experiment: Reverse Transcriptase (RT) Assay: inhibition of RNA-dependent DNA polymerase activity
Assay type: biochemical
Details: tested at a concentration of 10µg/ml; read-out: inhibit the enzyme (percent inhibition of RNA-dependent DNA polymerase activity of HIV-1 RT)
Description: Utilizing the Reverse Transcriptase (RT) Assay described below, compounds can be tested for their ability to inhibit the RNA-dependent DNA polymerase activity of HIV-1 RT. The compound described in Example 1, which appears below, was so tested.
Among the enzymes for which Human Immunodeficiency Virus (HIV-1) encodes is a reverse transcriptase (1), so-named because it transcribes a DNA copy from an RNA template. This activity can be quantitatively measured in a cell-free enzyme assay which has been previously described (2), and is based upon the observation that reverse transcriptase is able to use a synthetic template [poly r(C) primed with oligo d(G)] to transcribe a radio-labelled, acid-precipitable DNA strand utilizing ³H-dGTP as a substrate.
Reverse transcriptase enzyme from the LAV strain of Human Immunodeficiency Virus (HIV-1) (1) was isolated from the bacterial strain JM109 (3) expressing the DNA clone pBRTprtl+ (2) which is under the control of the lac promotor in the expression vector pIB121 (4). […]
The 2X concentrated stock reaction mixture is aliquoted and stored at -20°C. […] Each vial receives 2 ml of scintillation cocktail and is counted in a Beckman beta counter. […]

inhibition at 10 µg/mL: 30%
Structure (SMILES): CCCN1C(=O)c2cccnc2Oc2ncccc21 [Example 1, 5,6-Dihydro-5-propyl-6H-dipyrido[3,2-b:2′,3′-e][1,4]oxazepin-6-one]
